Article PMC4767422, “Molecular insights into the enzymatic diversity of flavin‐trafficking protein (Ftp; formerly ApbE) in flavoprotein biogenesis in the bacterial periplasm” (MicrobiologyOpen, 2015)
Positions count from the first letter of the chain named.

Assays:
Ftp_Lm = target: T1, Ftp_Lm (Listeria monocytogenes, UniProt A0A0H3GJF7); assay: FAD pyrophosphatase assay, FMN fluorescence; type: biochemical; settings: 10 uM FAD, 5 mM MgCl2, pH 7.5; single turnover
T1 construct: gene LMRG_02181; residues 22-361, signal peptide and acylated Cys removed, N-terminal TEV-cleavable His6 tag (pSpeedET), E. coli
T1 sequence (A0A0H3GJF7 21-360): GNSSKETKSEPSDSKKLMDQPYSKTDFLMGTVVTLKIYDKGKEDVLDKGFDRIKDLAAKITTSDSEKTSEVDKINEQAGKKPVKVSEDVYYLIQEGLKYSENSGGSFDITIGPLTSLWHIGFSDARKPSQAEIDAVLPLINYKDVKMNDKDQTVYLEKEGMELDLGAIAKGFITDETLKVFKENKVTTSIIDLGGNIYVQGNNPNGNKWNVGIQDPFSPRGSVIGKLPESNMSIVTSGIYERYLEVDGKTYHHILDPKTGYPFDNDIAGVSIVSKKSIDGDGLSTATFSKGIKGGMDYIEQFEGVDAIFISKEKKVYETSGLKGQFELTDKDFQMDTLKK

Ftp_Hd = target: T2, Ftp_Hd ([Haemophilus] ducreyi, UniProt Q7VNU3); assay: UV-visible spectrum of protein as isolated; type: binding; settings: co-purified flavin, nonstoichiometric; buffer A, pH 7.5
T2 construct: gene apbE; residues 17-343, signal peptide and acylated Cys removed, N-terminal TEV-cleavable His6 tag (pSpeedET), E. coli
T2 sequence (Q7VNU3 16-342): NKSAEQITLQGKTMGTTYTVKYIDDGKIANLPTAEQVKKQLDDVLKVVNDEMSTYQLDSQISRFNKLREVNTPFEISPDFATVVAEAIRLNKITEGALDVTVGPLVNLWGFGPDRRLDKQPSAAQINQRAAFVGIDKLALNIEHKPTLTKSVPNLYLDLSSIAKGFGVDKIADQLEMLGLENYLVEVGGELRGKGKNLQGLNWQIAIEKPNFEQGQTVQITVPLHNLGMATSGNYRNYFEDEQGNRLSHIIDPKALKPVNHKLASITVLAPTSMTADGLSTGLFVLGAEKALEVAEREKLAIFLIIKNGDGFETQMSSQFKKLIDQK

Ftp_Ef = target: T3, Ftp_Ef (Enterococcus faecalis, UniProt Q82Z24); assay: FAD pyrophosphatase assay, FMN fluorescence; type: biochemical; settings: 10 uM FAD, 5 mM MgCl2, pH 7.5; single turnover
T3 construct: gene EF_3255; residues 21-356, signal peptide and acylated Cys removed, N-terminal TEV-cleavable His6 tag (pSpeedET), E. coli
T3 sequence (Q82Z24 22-355): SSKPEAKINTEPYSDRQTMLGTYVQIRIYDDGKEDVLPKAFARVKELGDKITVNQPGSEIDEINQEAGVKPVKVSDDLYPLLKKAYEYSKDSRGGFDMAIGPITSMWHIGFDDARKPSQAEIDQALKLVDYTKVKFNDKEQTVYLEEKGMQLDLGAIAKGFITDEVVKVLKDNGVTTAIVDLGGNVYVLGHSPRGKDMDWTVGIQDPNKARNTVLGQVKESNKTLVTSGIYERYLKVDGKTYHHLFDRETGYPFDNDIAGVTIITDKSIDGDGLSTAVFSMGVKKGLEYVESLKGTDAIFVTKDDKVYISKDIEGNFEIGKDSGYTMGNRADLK

Ftp_Ec [1] = target: T4, Ftp_Ec (Escherichia coli, UniProt P0AB85); assay: fluorescence decrease on FAD binding; flavinylation gel; type: biochemical; settings: binds FAD without hydrolysis; FMN donor to RnfG_Ec with 5 mM MgCl2, pH 7.5
T4 construct: gene apbE; recombinant, ligand-free preparation as in Deka et al. 2013a; signal peptide removed; crystal model residues about 12-341
T4 sequence (P0AB85 21-351): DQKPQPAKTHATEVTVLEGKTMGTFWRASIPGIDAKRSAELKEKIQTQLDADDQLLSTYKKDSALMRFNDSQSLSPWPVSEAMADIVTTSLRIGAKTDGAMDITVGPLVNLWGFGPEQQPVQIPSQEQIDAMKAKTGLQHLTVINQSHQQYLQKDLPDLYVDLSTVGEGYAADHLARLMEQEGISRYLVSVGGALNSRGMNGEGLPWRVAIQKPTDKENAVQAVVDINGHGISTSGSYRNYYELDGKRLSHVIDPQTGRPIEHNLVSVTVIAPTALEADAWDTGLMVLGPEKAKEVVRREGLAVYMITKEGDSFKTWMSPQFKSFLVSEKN

Ftp_Td = target: T5, Ftp_Td (Treponema denticola, UniProt Q73JG1); assay: FAD pyrophosphatase assay, FMN fluorescence; type: biochemical; settings: 10 uM FAD, 5 mM MgCl2, pH 7.5; single turnover
T5 construct: gene TDE_2614; residues 28-372, signal peptide and acylated Cys removed, N-terminal TEV-cleavable His6 tag (pSpeedET), E. coli
T5 sequence (Q73JG1 28-371): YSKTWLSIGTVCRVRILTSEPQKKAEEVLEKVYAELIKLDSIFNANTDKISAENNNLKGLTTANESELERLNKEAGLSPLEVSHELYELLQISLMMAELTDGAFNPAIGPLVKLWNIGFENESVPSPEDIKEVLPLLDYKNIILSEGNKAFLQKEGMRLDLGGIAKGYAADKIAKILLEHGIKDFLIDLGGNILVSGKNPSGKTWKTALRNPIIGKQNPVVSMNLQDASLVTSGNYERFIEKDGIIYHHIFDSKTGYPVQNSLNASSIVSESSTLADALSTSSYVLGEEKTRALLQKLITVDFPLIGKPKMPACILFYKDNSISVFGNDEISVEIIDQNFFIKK

Ftp_Ab = target: T6, Ftp_Ab (Alcanivorax borkumensis, UniProt Q0VQR2); assay: UV-visible spectrum of protein as isolated; type: binding; settings: co-purified flavin, nonstoichiometric; buffer A, pH 7.5
T6 construct: gene apbE; residues 21-338, signal peptide and acylated Cys removed, N-terminal TEV-cleavable His6 tag (pSpeedET), E. coli
T6 sequence (Q0VQR2 20-337): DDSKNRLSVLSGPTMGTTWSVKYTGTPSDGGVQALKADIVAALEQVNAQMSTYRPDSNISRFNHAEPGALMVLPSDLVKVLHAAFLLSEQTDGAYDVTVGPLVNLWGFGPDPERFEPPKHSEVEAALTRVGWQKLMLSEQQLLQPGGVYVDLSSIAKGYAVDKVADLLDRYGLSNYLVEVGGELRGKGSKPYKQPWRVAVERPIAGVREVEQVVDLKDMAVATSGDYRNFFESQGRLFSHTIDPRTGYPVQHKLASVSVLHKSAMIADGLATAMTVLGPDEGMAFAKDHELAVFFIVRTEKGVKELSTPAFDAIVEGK

NqrC_So = target: T7, NqrC_So (Shewanella oneidensis, UniProt Q8EID8); assay: crystal structure, […] A; type: binding; settings: covalent phosphoester-threonyl-FMN at T225, formed in vitro by Ftp_So from FAD and Mg2+
T7 construct: gene nqrC; residues 32-265, without N-terminal membrane anchor; recloned into pProEx HTb; His tag cut with TEV after flavinylation
T7 sequence (Q8EID8 32-264): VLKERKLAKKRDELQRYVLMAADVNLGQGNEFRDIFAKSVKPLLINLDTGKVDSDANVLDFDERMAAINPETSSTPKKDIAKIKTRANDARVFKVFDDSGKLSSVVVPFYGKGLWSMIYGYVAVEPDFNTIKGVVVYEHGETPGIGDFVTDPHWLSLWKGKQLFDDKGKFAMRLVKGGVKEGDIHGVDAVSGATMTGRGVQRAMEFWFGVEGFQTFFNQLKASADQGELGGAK

Ftp_Ec [2] = target: T8, Ftp_Ec (Escherichia coli, UniProt P0AB85, Y79N); assay: crystal structure, […]-1.[…] A; also inhibits FAD pyrophosphatase activity; type: binding; settings: two Mg2+ bound; active site
T8 construct: gene apbE; recombinant, ligand-free preparation as in Deka et al. 2013a; signal peptide removed; crystal model residues about 12-341
T8 sequence (P0AB85 21-351 Y79N): T4 sequence (P0AB85 21-351) with Y59N

## Cc1cc2nc3c(=O)[nH]c(=O)nc-3n(C[C@H](O)[C@H](O)[C@H](O)COP(=O)(O)OP(=O)(O)OC[C@H]3O[C@@H](n4cnc5c(N)ncnc54)[C@H](O)[C@@H]3O)c2cc1C [FAD]
Ftp_Lm
  FAD pyrophosphatase assay, FMN fluorescence: all nonyellow Ftps showed single‐turnover kinetics of FAD pyrophosphatase activity
Ftp_Hd
  UV-visible spectrum of protein as isolated: purified as yellow, flavin‐bound forms (holoproteins)
Ftp_Ef
  FAD pyrophosphatase assay, FMN fluorescence: all nonyellow Ftps showed single‐turnover kinetics of FAD pyrophosphatase activity
Ftp_Ec [1]
  fluorescence decrease on FAD binding; flavinylation gel: wild‐type Ftp_Ec (in orange) binds FAD as demonstrated by a decrease in the emission fluorescence
Ftp_Td
  FAD pyrophosphatase assay, FMN fluorescence: all nonyellow Ftps showed single‐turnover kinetics of FAD pyrophosphatase activity
Ftp_Ab
  UV-visible spectrum of protein as isolated: purified as yellow, flavin‐bound forms (holoproteins)

## Cc1cc2nc3c(=O)[nH]c(=O)nc-3n(C[C@H](O)[C@H](O)[C@H](O)COP(=O)(O)O)c2cc1C [FMN]
NqrC_So
  crystal structure, 1.76 A: The modified threonine (T225) lies at the N‐terminal end of the C‐terminal alpha helix

## Nc1ncnc2c1ncn2[C@@H]1O[C@H](COP(=O)(O)OP(=O)(O)O)[C@@H](O)[C@H]1O [ADP]
Ftp_Ec [2]
  crystal structure, 1.85-1.90 A; also inhibits FAD pyrophosphatase activity: we obtained a crystal structure of the ADP complex with two metals bound
